Assay results published in US20250243488A1, “METHODS OF MODULATING PROGRANULIN EXPRESSION USING ANTISENSE OLIGONUCLEOTIDES TARGETING REGULATORY RNAS” (Camp4 Therapeutics Corporation, priority 2022, published 2025).
Oligonucleotides are written 5' to 3', each unit as a sugar letter and its base; * is a phosphorothioate linkage, no mark a phosphodiester; rarer units and linkages stand in square brackets, end groups in braces. Plain capitals give the bases only. e = 2'-O-(2-methoxyethyl) (MOE); [5mC] = 5-methylcytosine

Test system: GRN mRNA
Assay: GRN mRNA qPCR in SK-N-AS cells transfected with ASOs
Format: cell-based, human
Conditions: SK-N-AS; for hit identification (GRN mRNA dose escalation): 3.75 nM to 120 nM; for hit identification (GRN mRNA dose escalation) / 3.75 nM FC (GRN mRNA) / 7.5 nM FC (GRN mRNA) / 15 nM FC (GRN mRNA) / 30 nM FC (GRN mRNA) / 60 nM FC (GRN mRNA) / 120 nM FC (GRN mRNA): 48 hours; for hGRN mRNA FC: Table 9, 48 hours post-transfection; for hGRN mRNA FC / 120 nM FC (GRN mRNA): 120 nM; for hGRN mRNA FC / 3.75 nM FC (GRN mRNA) / 7.5 nM FC (GRN mRNA) / 15 nM FC (GRN mRNA) / 30 nM FC (GRN mRNA) / 60 nM FC (GRN mRNA) / 120 nM FC (GRN mRNA): normalized to CO-1589; for 3.75 nM FC (GRN mRNA) / 7.5 nM FC (GRN mRNA) / 15 nM FC (GRN mRNA) / 30 nM FC (GRN mRNA) / 60 nM FC (GRN mRNA) / 120 nM FC (GRN mRNA): Table 10
Procedure: The best ASOs based on increased GRN mRNA fold-change were selected for further characterization in dose titration studies. Briefly, human neuroblastoma SK-N-AS cells were transfected with 20 to 160 nM of ASOs CO-3423, CO-3431, CO-3463, and CO-3503. A steric non-targeting control ASO (sNTC) was used as a control. Cells were collected for mRNA analysis after 48 hours and GRN mRNA quantified by qPCR. Housekeeping genes for normalization were GAPDH and PPIA, and mRNA fold change (FC) was normalized to sNTC.
36 additional ASOs were designed with different modifications and base walking around selected ASOs. The effect of increasing doses of these ASOs was assessed in the human neuroblastoma cell line SK-N-AS following transfection. Relative GRN mRNA levels in SK-N-AS cells after treatment was assessed 48-hours post-transfection, and data from exemplary ASOs is shown in FIGS. 5A and 5B.
Additional chemical modifications, including LNA, modifications were made to CO-3423. SK-N-AS cells were transfected with increasing concentrations of the LNA/PS modified ASOs and GRN mRNA quantified by qPCR. ASOs including different LNA modifications of CO-3423 had similar efficacy (i.e, similar increased GRN mRNA expression). GRN mRNA was normalized to the average fold-change of cells treated with two steric non-targeting control ASOs (CO-3772 and CO-1589 (sNTC1)).
The effect of ASO length on GRN gene expression modulation was also investigated. SK-N-AS cells were transfected with increasing concentrations of the longer ASOs and GRN mRNA quantified by qPCR. Increasing the length of CO-3423 increased the potency of the ASO, as shown in Table 4. mRNA was normalized to the average fold change of cells treated with two steric non-targeting control ASOs (CO-3772 and CO-1589 (sNTC1)).
To determine whether variations in the PO/PS internucleotide bond linkages impacted the ability of CO-3423 and CO-3431 to modulate gene expression, several modified ASOs based on these parent ASOs were prepared. SK-N-AS cells were transfected with increasing concentrations of the mixed PO/PS bond ASOs described in Tables 5 and 6, and GRN mRNA quantified by qPCR.
GRN mRNA fold-change after treatment with mixed PO/PS bond versions of CO-3423 is shown in Table 5. mRNA was normalized to the average fold change of cells treated with steric nontargeting controls (CO-3772, CO-1589 (sNTC1), and CO-1929 (sNTC3)).
GRN mRNA fold-change after treatment with mixed PO/PS bond versions of CO-3431 is shown in Table 6. mRNA was normalized as described above.
To further assess the effect of additional modifications on the ability of CO-3423 parent ASO to modulate GRN gene expression, additional LNA tiling and PO bond modifications were incorporated to CO-3423. SK-N-AS cells were transfected with increasing concentrations of the modified ASOs and GRN mRNA quantified by qPCR. CO-3423 was used for comparison. GRN mRNA was normalized to the average fold-change of cells treated with a steric non-targeting control ASO, CO-1589 (sNTC1).
To further assess the effect of modifications on the ability of CO-3463 parent ASO to modulate GRN gene expression, ASOs based on this ASOS incorporating additional LNA modifications were prepared and compared to […]. SK-N-AS cells were transfected with increasing concentrations of the ASOs and GRN mRNA quantified by qPCR. GRN mRNA was normalized to the average fold-change of cells treated with a steric non-targeting control ASO, CO-1589 (sNTC1).
68 additional ASOs were designed to target intergenic enhancers (eRNA). 48 hours post-transfection, the cells were collected for GRN mRNA analysis using qPCR. CO-1589, a steric nontargeting control ASO, was used as a control. GRN mRNA was normalized to cells treated with CO-1589.
The best hits from these ASOs were tested in a dose escalation study. Cells were incubated for 48 hours. Subsequently, the cells were collected for mRNA quantification via RT-qPCR. […]

CO-4611: ASO designed to target intergenic enhancers (eRNA) (antisense eT*eA*eT*eT*eA*eA*eT*e[5mC]*e[5mC]*eA*e[5mC]*eG*e[5mC]*eT*eG*eT*e[5mC]*e[5mC]*e[5mC]*eA)
hit identification (GRN mRNA dose escalation): initial hits | hGRN mRNA FC: 1.4 FC | 3.75 nM FC (GRN mRNA): 1.1 FC | 7.5 nM FC (GRN mRNA): 1.1 FC | 15 nM FC (GRN mRNA): 1.1 FC | 30 nM FC (GRN mRNA): 1.1 FC | 60 nM FC (GRN mRNA): 1.1 FC | 120 nM FC (GRN mRNA): 1.3 FC

CO-4612: ASO designed to target intergenic enhancers (eRNA) (antisense eA*eT*eG*eG*e[5mC]*eT*eA*eA*eA*eA*e[5mC]*eT*eA*e[5mC]*e[5mC]*eT*eT*e[5mC]*e[5mC]*eA)
hGRN mRNA FC: 1.0 FC

CO-4613: ASO designed to target intergenic enhancers (eRNA) (antisense eA*eT*e[5mC]*eA*eA*eG*eG*eG*eT*eT*eT*eG*eG*e[5mC]*eG*eT*eT*eT*eA*eG)
hit identification (GRN mRNA dose escalation): initial hits | hGRN mRNA FC: 1.6 FC | 3.75 nM FC (GRN mRNA): 1.0 FC | 7.5 nM FC (GRN mRNA): 1.1 FC | 15 nM FC (GRN mRNA): 1.2 FC | 30 nM FC (GRN mRNA): 1.1 FC | 60 nM FC (GRN mRNA): 1.2 FC | 120 nM FC (GRN mRNA): 1.4 FC

CO-4614: ASO designed to target intergenic enhancers (eRNA) (antisense eT*eG*eA*e[5mC]*eT*eA*eG*eA*eG*eA*eA*eA*e[5mC]*eG*e[5mC]*eT*eT*eA*eG*eA)
hGRN mRNA FC: 1.2 FC

CO-4615: ASO designed to target intergenic enhancers (eRNA) (antisense e[5mC]*eA*eT*eT*eT*e[5mC]*eA*e[5mC]*eA*e[5mC]*eT*eT*eG*eT*eA*eT*eG*eA*eG*e[5mC])
hGRN mRNA FC: 1.0 FC

CO-4616: ASO designed to target intergenic enhancers (eRNA) (antisense eA*eA*eG*eA*eA*eG*eG*e[5mC]*e[5mC]*eA*eA*eG*e[5mC]*eT*eG*eG*eT*eA*e[5mC]*e[5mC])
hGRN mRNA FC: 1.2 FC

CO-4617: ASO designed to target intergenic enhancers (eRNA) (antisense eG*eG*eA*eG*eA*eT*eA*eG*eG*eG*eT*e[5mC]*eA*e[5mC]*eG*eT*eA*e[5mC]*eT*eT)
hGRN mRNA FC: 1.2 FC

CO-4618: ASO designed to target intergenic enhancers (eRNA) (antisense eA*eT*eA*eG*eG*eT*e[5mC]*eA*eG*eG*eG*eA*eA*eT*eG*e[5mC]*e[5mC]*eG*e[5mC]*e[5mC])
hGRN mRNA FC: 1.3 FC

CO-4619: ASO designed to target intergenic enhancers (eRNA) (antisense eT*eG*eA*eT*eA*eT*eA*eG*eA*eG*eA*eT*e[5mC]*eT*eG*e[5mC]*eA*eG*e[5mC]*e[5mC])
hit identification (GRN mRNA dose escalation): initial hits | hGRN mRNA FC: 1.3 FC | 3.75 nM FC (GRN mRNA): 1.0 FC | 7.5 nM FC (GRN mRNA): 1.1 FC | 15 nM FC (GRN mRNA): 1.3 FC | 30 nM FC (GRN mRNA): 1.2 FC | 60 nM FC (GRN mRNA): 1.2 FC | 120 nM FC (GRN mRNA): 1.6 FC

CO-4620: ASO designed to target intergenic enhancers (eRNA) (antisense eG*eT*e[5mC]*e[5mC]*eA*eG*e[5mC]*eA*e[5mC]*eG*e[5mC]*eT*e[5mC]*eT*e[5mC]*eA*eG*e[5mC]*eA*e[5mC])
hGRN mRNA FC: 1.0 FC

CO-4621: ASO designed to target intergenic enhancers (eRNA) (antisense e[5mC]*eG*e[5mC]*eT*eG*e[5mC]*eT*eG*eT*eT*eT*eG*eG*eA*eA*e[5mC]*eG*eA*eG*eT)
hGRN mRNA FC: 1.2 FC

CO-4622: ASO designed to target intergenic enhancers (eRNA) (antisense eA*e[5mC]*eA*eG*eT*eG*eG*e[5mC]*e[5mC]*eG*e[5mC]*eA*eT*eA*eA*eA*eT*eT*eT*e[5mC])
hit identification (GRN mRNA dose escalation): initial hits | hGRN mRNA FC: 1.0 FC | 3.75 nM FC (GRN mRNA): 1.0 FC | 7.5 nM FC (GRN mRNA): 1.0 FC | 15 nM FC (GRN mRNA): 1.0 FC | 30 nM FC (GRN mRNA): 1.0 FC | 60 nM FC (GRN mRNA): 1.1 FC | 120 nM FC (GRN mRNA): 1.1 FC

CO-4623: ASO designed to target intergenic enhancers (eRNA) (antisense e[5mC]*e[5mC]*eT*eG*eA*e[5mC]*e[5mC]*eT*eG*e[5mC]*e[5mC]*eA*eT*e[5mC]*eT*eA*eT*e[5mC]*eA*eA)
hGRN mRNA FC: 1.1 FC

CO-4624: ASO designed to target intergenic enhancers (eRNA) (antisense eG*eT*e[5mC]*eA*eG*eA*e[5mC]*eT*eG*eT*e[5mC]*e[5mC]*eT*eA*e[5mC]*eA*e[5mC]*e[5mC]*eT*eT)
hGRN mRNA FC: 1.3 FC

CO-4625: ASO designed to target intergenic enhancers (eRNA) (antisense eT*e[5mC]*eT*eT*eG*eT*eT*eG*eT*eT*eG*eG*eA*eA*eA*eT*eT*e[5mC]*e[5mC]*e[5mC])
hGRN mRNA FC: 1.1 FC

CO-4626: ASO designed to target intergenic enhancers (eRNA) (antisense e[5mC]*e[5mC]*eT*e[5mC]*eA*eT*eG*eT*eA*eT*eG*eT*eA*eA*eT*eT*eG*e[5mC]*e[5mC]*e[5mC])
hGRN mRNA FC: 1.0 FC

CO-4627: ASO designed to target intergenic enhancers (eRNA) (antisense eA*e[5mC]*eT*e[5mC]*eA*eA*eT*eG*e[5mC]*eA*eT*eA*eG*e[5mC]*eA*eG*eA*eA*eT*eA)
hGRN mRNA FC: 1.3 FC

CO-4628: ASO designed to target intergenic enhancers (eRNA) (antisense eT*e[5mC]*e[5mC]*eA*eT*eA*e[5mC]*eA*eA*e[5mC]*eT*eG*e[5mC]*eA*eG*eA*eG*eT*eG*eG)
hGRN mRNA FC: 1.0 FC

CO-4629: ASO designed to target intergenic enhancers (eRNA) (antisense eA*eT*eG*eG*e[5mC]*eA*eA*eA*eT*eG*eA*e[5mC]*e[5mC]*eT*eT*e[5mC]*eG*eG*eT*eA)
hGRN mRNA FC: 1.1 FC

CO-4630: ASO designed to target intergenic enhancers (eRNA) (antisense eG*eT*e[5mC]*eT*eT*e[5mC]*eA*eA*eG*eA*eA*e[5mC]*eT*eT*eT*eA*e[5mC]*e[5mC]*eG*eA)
hGRN mRNA FC: 1.0 FC

CO-4631: ASO designed to target intergenic enhancers (eRNA) (antisense eA*e[5mC]*e[5mC]*eA*e[5mC]*eT*e[5mC]*eT*eG*e[5mC]*eA*eG*eT*eT*eG*eT*eA*eT*eG*eG)
hit identification (GRN mRNA dose escalation): initial hits | hGRN mRNA FC: 1.1 FC | 3.75 nM FC (GRN mRNA): 1.1 FC | 7.5 nM FC (GRN mRNA): 1.1 FC | 15 nM FC (GRN mRNA): 1.2 FC | 30 nM FC (GRN mRNA): 1.1 FC | 60 nM FC (GRN mRNA): 1.1 FC | 120 nM FC (GRN mRNA): 1.3 FC

CO-4632: ASO designed to target intergenic enhancers (eRNA) (antisense eT*eG*e[5mC]*eT*eA*eT*eG*e[5mC]*eA*eT*eT*eG*eA*eG*eT*eT*eT*eT*e[5mC]*e[5mC])
hGRN mRNA FC: 1.1 FC
